Assay results reported in patent US20210101881A1 (Ancureall Pharmaceutical (Shanghai) Co., Ltd., priority 2018, published 2021).

Tests used:
[1] = target: T1, CDK9/CyclinK kinase (Homo sapiens, UniProt P50750); assay: CDK9 protein kinase activity, ADP-Glo CDK9/CyclinK kinase detection kit; format: biochemical; details: read-out: IC50 of the compound for inhibiting CDK9 protein kinase activity, CDK9/CyclinK kinase
T1 construct: purchased Promega Corporation V4105
Method: Measurement of CDK9 Protein Kinase Activity
The present compound was dissolved in DMSO (Sigma Aldrich), and the initial concentration of the compound was 1000 nM. A two-fold serial dilution was carried out. The specific operation of CDK9 kinase activity determination was carried out according to the ADP-Go™ CDK9/CyclinK kinase detection experimental procedure. […] Each test sample was tested in duplicate, and the test was repeated once. The inhibitory activity (IC50) of the compound on CDK9 protein kinase was calculated from the dose-inhibition curve of the compound.

[2] = test system: Colo205; assay: Growth inhibition of CDK9-positive tumor cell line in vitro; format: cell-based; details: COLO 205, Human intestinal cancer, read-out: Inhibitory activity (IC50) on growth in vitro, Colo205
Method: (§1) Measurement of the Inhibitory Activity of the Present Compound on the Growth of Various Types of CDK9-Positive Tumor Cell Lines In Vitro
(§2) The inventors selected representative CDK9-positive tumor cell lines for further determination of the compound activity. All cell lines used came from ATCC, JCRB, DSMZ and Chinese Academy of Sciences Cell Bank (ZK). Cell culture condition and method were based on the requirements of each cell line. No more than 3 passages were carried out in each culture in vitro. Monoclonal purification and STR identification of the cell line were conducted if necessary.

[3] = test system: NCI-H1703; assay: as above; format: cell-based; details: Human lung cancer, read-out: Inhibitory activity (IC50) on growth in vitro, NCI-H1703
Method: as §1, §2

[4] = test system: NCI-H1781; assay: as above; format: cell-based; details: Human lung cancer, read-out: Inhibitory activity (IC50) on growth in vitro, NCI-H1781
Method: as §1, §2

[5] = test system: TPC-1; assay: as above; format: cell-based; details: TPC1, Human thyroid cancer, read-out: Inhibitory activity (IC50) on growth in vitro, TPC-1
Method: as §1, §2

[6] = test system: A375; assay: as above; format: cell-based; details: A-375, Human melanoma, read-out: Inhibitory activity (IC50) on growth in vitro, A375
Method: as §1, §2

[7] = test system: Kasumi-1; assay: as above; format: cell-based; details: Human acute myeloid leukemia, read-out: Inhibitory activity (IC50) on growth in vitro, Kasumi-1
Method: as §1, §2

[8] = test system: Pfeiffer; assay: as above; format: cell-based; details: Human B lymphocyte tumor, read-out: Inhibitory activity (IC50) on growth in vitro, Pfeiffer
Method: as §1, §2

[9] = test system: HuCCT-1; assay: as above; format: cell-based; details: Human cholangiocarcinoma, read-out: Inhibitory activity (IC50) on growth in vitro, HuCCT-1
Method: as §1, §2

[10] = test system: NCI-H1581; assay: as above; format: cell-based; details: Human lung cancer, read-out: Inhibitory activity (IC50) on growth in vitro, NCI-H1581
Method: as §1, §2

[11] = test system: AGS; assay: as above; format: cell-based; details: Human stomach cancer, read-out: Inhibitory activity (IC50) on growth in vitro, AGS
Method: as §1, §2

[12] = test system: HO8910PM; assay: as above; format: cell-based; details: Human ovarian cancer, read-out: Inhibitory activity (IC50) on growth in vitro, HO8910PM
Method: as §1, §2

[13] = test system: NCI-N87; assay: as above; format: cell-based; details: Human stomach cancer, read-out: Inhibitory activity (IC50) on growth in vitro, NCI-N87
Method: as §1, §2

[14] = test system: PC-9; assay: as above; format: cell-based; details: Human lung cancer, read-out: Inhibitory activity (IC50) on growth in vitro, PC-9
Method: as §1, §2

[15] = test system: NCI-H358; assay: as above; format: cell-based; details: Human lung cancer, read-out: Inhibitory activity (IC50) on growth in vitro, NCI-H358
Method: as §1, §2

[16] = test system: NCI-H1993; assay: as above; format: cell-based; details: Human lung cancer, read-out: Inhibitory activity (IC50) on growth in vitro, NCI-H1993
Method: as §1, §2

[17] = test system: CAL-120; assay: as above; format: cell-based; details: Human breast cancer, read-out: Inhibitory activity (IC50) on growth in vitro, CAL-120
Method: as §1, §2

[18] = test system: SK-MEL-28; assay: as above; format: cell-based; details: Human melanoma, read-out: Inhibitory activity (IC50) on growth in vitro, SK-MEL-28
Method: as §1, §2

[19] = test system: MCF7; assay: as above; format: cell-based; details: Human breast cancer, read-out: Inhibitory activity (IC50) on growth in vitro, MCF7
Method: as §1, §2

[20] = test system: DU-145; assay: as above; format: cell-based; details: Human prostate cancer, read-out: Inhibitory activity (IC50) on growth in vitro, DU-145
Method: as §1, §2

[21] = test system: KHM-5M; assay: as above; format: cell-based; details: read-out: Inhibitory activity (IC50) on growth in vitro, Human thyroid cancer
Method: as §1, §2

[22] = test system: Sk-ov-3; assay: as above; format: cell-based; details: Human ovarian cancer, read-out: Inhibitory activity (IC50) on growth in vitro, Sk-ov-3
Method: as §1, §2

[23] = test system: BT-474; assay: as above; format: cell-based; details: Human breast cancer, read-out: Inhibitory activity (IC50) on growth in vitro, BT-474
Method: as §1, §2

[24] = test system: HCT-116; assay: as above; format: cell-based; details: Human intestinal cancer, read-out: Inhibitory activity (IC50) on growth in vitro, HCT-116
Method: as §1, §2

[25] = test system: B-CPAP; assay: as above; format: cell-based; details: BCPAP, Human thyroid cancer, read-out: Inhibitory activity (IC50) on growth in vitro, B-CPAP
Method: as §1, §2

[26] = test system: MDA-MB-436; assay: as above; format: cell-based; details: Human breast cancer, read-out: Inhibitory activity (IC50) on growth in vitro, MDA-MB-436
Method: as §1, §2

[27] = test system: NCI-H460; assay: as above; format: cell-based; details: Human lung cancer, read-out: Inhibitory activity (IC50) on growth in vitro, NCI-H460
Method: as §1, §2

T1 sequence (P50750 whole entry): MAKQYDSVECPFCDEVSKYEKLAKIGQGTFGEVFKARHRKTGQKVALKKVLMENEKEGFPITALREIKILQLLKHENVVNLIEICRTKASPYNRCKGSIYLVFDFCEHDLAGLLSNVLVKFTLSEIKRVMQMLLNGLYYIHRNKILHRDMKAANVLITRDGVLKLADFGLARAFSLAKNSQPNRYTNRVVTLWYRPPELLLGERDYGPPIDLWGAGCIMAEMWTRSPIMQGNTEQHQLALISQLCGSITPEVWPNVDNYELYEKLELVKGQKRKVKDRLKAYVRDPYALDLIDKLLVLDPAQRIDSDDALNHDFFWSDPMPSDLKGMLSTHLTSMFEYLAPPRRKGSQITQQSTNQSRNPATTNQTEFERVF
T1 sequence (O75909 whole entry partner): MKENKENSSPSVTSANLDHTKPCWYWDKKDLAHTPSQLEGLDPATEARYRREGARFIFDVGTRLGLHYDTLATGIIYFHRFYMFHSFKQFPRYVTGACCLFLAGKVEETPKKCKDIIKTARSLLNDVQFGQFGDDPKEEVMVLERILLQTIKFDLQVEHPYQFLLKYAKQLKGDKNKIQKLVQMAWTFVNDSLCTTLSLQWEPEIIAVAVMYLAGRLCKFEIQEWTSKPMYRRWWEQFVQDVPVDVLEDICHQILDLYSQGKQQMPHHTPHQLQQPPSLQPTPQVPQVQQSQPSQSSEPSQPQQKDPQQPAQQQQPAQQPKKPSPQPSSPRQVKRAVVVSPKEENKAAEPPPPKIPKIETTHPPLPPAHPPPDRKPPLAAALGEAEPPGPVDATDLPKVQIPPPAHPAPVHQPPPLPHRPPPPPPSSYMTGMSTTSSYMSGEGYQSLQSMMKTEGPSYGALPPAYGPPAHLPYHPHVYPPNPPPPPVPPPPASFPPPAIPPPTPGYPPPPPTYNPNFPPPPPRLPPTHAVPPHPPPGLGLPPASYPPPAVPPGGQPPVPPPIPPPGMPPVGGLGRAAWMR

## CCN1CCN(c2cccc(Nc3ncc(F)c(-n4cc(C(N)=O)c5cc(F)ccc54)n3)c2)CC1 [Compound 161, 1-{2-[3-(4-ethyl-piperazin-1-yl)-phenylamino]-5-fluoro-pyrimidin-4-yl}-5-fluoro-1H-indole-3-carboxamide]
[1]
  IC50: < 1 nM
[2]
  IC50: 1 to 10 nM
[3]
  IC50: < 1 nM
[4]
  IC50: < 1 nM
[5]
  IC50: 1 to 10 nM
[6]
  IC50: 1 to 10 nM
[7]
  IC50: 1 to 10 nM
[8]
  IC50: < 1 nM
[9]
  IC50: 1 to 10 nM
[10]
  IC50: < 1 nM
[11]
  IC50: 1 to 10 nM
[12]
  IC50: < 1 nM
[13]
  IC50: 1 to 10 nM
[14]
  IC50: 1 to 10 nM
[15]
  IC50: 1 to 10 nM
[16]
  IC50: 10 to 100 nM
[17]
  IC50: < 1 nM
[18]
  IC50: 1 to 10 nM
[19]
  IC50: < 1 nM
[20]
  IC50: 1 to 10 nM
[21]
  IC50: 1 to 10 nM
[22]
  IC50: < 1 nM
[23]
  IC50: < 1 nM
[24]
  IC50: 1 to 10 nM
[25]
  IC50: 1 to 10 nM
[26]
  IC50: < 1 nM
[27]
  IC50: 1 to 10 nM
